Experimental data: publication PMC12083526, “Capturing structural intermediates in an animal-like cryptochrome photoreceptor by time-resolved crystallography” (Science Advances, 2025)

Key:
[1] = molecular target: T1, CraCRYΔCTE (CraCRY; animal-like cryptochrome, aCRY) (Chlamydomonas reinhardtii, UniProt A8J8W0, E384Q); assay: steady-state photoreduction, UV/Vis absorption; type: binding; settings: white light on ice, aerobic, no external reductant; 20 mM phosphate, 500 mM NaCl, 10% glycerol, pH 5.5-8.5
T1 construct: gene CHLRE_06g278251v5; C-terminal extension E496-E595 replaced by a His tag; pET28a-based; E. coli BL21(DE3); PHR domain plus helix α22
T1 sequence (A8J8W0 entry or part of it E384Q): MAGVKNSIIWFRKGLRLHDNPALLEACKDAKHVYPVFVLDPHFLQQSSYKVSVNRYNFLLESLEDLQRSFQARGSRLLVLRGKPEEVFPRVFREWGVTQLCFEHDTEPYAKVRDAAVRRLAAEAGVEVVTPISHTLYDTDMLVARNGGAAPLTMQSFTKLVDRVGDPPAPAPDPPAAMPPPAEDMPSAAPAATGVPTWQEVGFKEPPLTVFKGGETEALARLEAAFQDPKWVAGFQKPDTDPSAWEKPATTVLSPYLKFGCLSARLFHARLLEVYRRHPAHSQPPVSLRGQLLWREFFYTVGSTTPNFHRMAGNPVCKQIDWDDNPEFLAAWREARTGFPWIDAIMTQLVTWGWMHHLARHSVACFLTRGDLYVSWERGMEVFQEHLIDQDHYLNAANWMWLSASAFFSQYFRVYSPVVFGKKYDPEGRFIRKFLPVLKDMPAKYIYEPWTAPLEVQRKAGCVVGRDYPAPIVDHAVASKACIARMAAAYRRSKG

[2] = molecular target: T2, CraCRYΔCTE (CraCRY; animal-like cryptochrome, aCRY) (Chlamydomonas reinhardtii, UniProt A8J8W0); assay: serial femtosecond crystallography (room temperature); settings: crystals reduced with 50 mM DTT and white light, anaerobic; FAD-binding site
T2 construct: gene CHLRE_06g278251v5; C-terminal extension E496-E595 replaced by a His tag; pET28a-based; E. coli BL21(DE3); PHR domain plus helix α22
T2 sequence (A8J8W0 entry or part of it, stated change not applied): as the sequence (A8J8W0 entry or part of it E384Q) above, with Q384E counted along it

Row | Structure (SMILES) | steady-state photoreduction, UV/Vis absorption [1] | serial femtosecond crystallography (room temperature) [2]
1 | Cc1cc2nc3c(=O)[nH]c(=O)nc-3n(C[C@H](O)[C@H](O)[C@H](O)COP(=O)(O)OP(=O)(O)OC[C@H]3O[C@@H](n4cnc5c(N)ncnc54)[C@H](O)[C@@H]3O)c2cc1C [FADox, flavin adenine dinucleotide] | E384Q is inefficient to generate the neutral radical FADH^• at physiological pH | –
2 | Cc1cc2c(cc1C)N(C[C@H](O)[C@H](O)[C@H](O)COP(=O)(O)OP(=O)(O)OC[C@H]1O[C@@H](n3cnc4c(N)ncnc43)[C@H](O)[C@@H]1O)c1[nH]c(=O)[nH]c(=O)c1N2 [FADH^−] | – | CraCRY structures in FADox and FADH^− states at room temperature are almost identical
